Measurements taken from article PMC10288505, “Photoswitchable Calixarene Activators for Controlled Peptide Transport across Lipid Membranes” (Journal of the American Chemical Society, 2023).

Tests used:
HeLa cells [1] = assay: Confocal fluorescence microscopy of TAMRA-R8 cellular uptake; type: cell-based; settings: TAMRA-R8 3 μM with activator (10, 50, 100, 250 nM), 25 min at 37 °C
Protocol: (§1) Success in artificial vesicle assays encouraged us to conduct transport experiments of fluorescently labeled peptides in living cells (Figure 5). We first employed confocal fluorescence microscopy to evaluate counterion activator 2 for the intracellular transport of a carboxytetramethylrhodamine-labeled R8 peptide (TAMRA-R8) into the cytosol of HeLa cells. Cationic peptides usually remain trapped inside the endosomes when incubated with cells at low μM concentrations.[32],[44] […] The cytometry experiments validated the E isomer selective transport and indicated a four-fold intracellular delivery enhancement (Figure 5C and Figure S52). […]
Figure 5 (A) Schematic representation of oligoarginine intracellular delivery by both isomers of 2. (B) Confocal fluorescence microscopy images of the cellular uptake of 3 μM TAMRA-R8 (in red) facilitated by E-2/Z-2. […] (C) Fluorescence intensity of HeLa cells incubated with 3 μM TAMRA-R8 in the presence of different E-2/Z-2 concentrations, measured by flow cytometry. […]
(§2) Confocal microscopy assays. […] Fluorescence of Hoechst was excited with the 405 nm laser and the emission was detected at 450/50 nm; for the TAMRA fluorescence, an excitation of 561 nm was used while the emission was detected at 620/60 nm. […]
(§3) Flow cytometry assays. […] TAMRA fluorescence was excited at 532 nm (green laser) and […]

HeLa cells [2] = assay: Flow cytometry quantification of TAMRA-R8 uptake; type: cell-based; settings: TAMRA-R8 3 μM, activator 10-250 nM, 25 min, flow cytometry mean fluorescence intensity, quadruplicate
Protocol: as §1, §2, §3
measured on a Guava easyCyte BG HT collecting the emission at 583/26 nm (Yellow-G channel), using InCyte v3.2 (GuavaSoft, Millipore). Cells with typical FSC and SSC parameters were selected and the mean fluorescence intensity was calculated for each sample. Each condition was measured in quadruplicate. […]

Compound: CCCCc1ccc(/N=N/c2ccc(OCCCOc3c4cc(S(=O)(=O)[O-])cc3Cc3cc(S(=O)(=O)[O-])cc(c3O)Cc3cc(S(=O)(=O)[O-])cc(c3O)Cc3cc(S(=O)(=O)[O-])cc(c3O)C4)cc2)cc1.[Li+].[Li+].[Li+].[Li+] [E-2]
- Intracellular TAMRA-R8 fluorescence in the presence of activator (HeLa cells [1]): strong diffuse fluorescence signal in the cytosol, nucleus, and nucleolus
- Intracellular delivery enhancement of TAMRA-R8, E isomer relative to Z isomer (HeLa cells [2]): four-fold
